Assay results reported in ChEMBL document CHEMBL2202987, “Structure based medicinal chemistry approach to develop 4-methyl-7-deazaadenine carbocyclic nucleosides as anti-HCV agent” (Bioorg Med Chem Lett, 2012).

Assays:
Hepatitis C virus = assay: Antiviral activity against HCV infected in HuH7 cells after 3 days by luciferase reporter gene assay; type: functional, organism-based, Hepacivirus hominis; settings: Huh-7, 72 h
[1] = Cytotoxicity against human HuH7 cells by tetrazolium dye method; type: cell-based, Huh-7

EC50 (Hepatitis C virus) [µM]	SMILES	CC50 [1] [µM]
> 100	Cc1ncnc2c1c(F)cn2[C@@H]1C=C(CO)[C@@H](O)[C@H]1O	> 100
41.7	Cc1ncnc2c1c(Cl)cn2[C@@H]1C=C(CO)[C@@H](O)[C@H]1O	> 100
37.3	Cc1ncnc2c1c(Br)cn2[C@@H]1C=C(CO)[C@@H](O)[C@H]1O	> 100
46.2	Cc1ncnc2c1c(I)cn2[C@@H]1C=C(CO)[C@@H](O)[C@H]1O	> 100

Further lines, the compound ahead of its results:

SMILES	EC50 (Hepatitis C virus) [µM]	CC50 [1] [µM]
CCCCn1c(=O)c2cc(OC)ccc2c2cc(C(O)(C(F)(F)F)C(F)(F)F)c(OC)cc21	0.17	> 10
Cc1ncnc2c1ccn2[C@@H]1C=C(CO)[C@@H](O)[C@H]1O	> 100	> 100
C=Cc1cn([C@@H]2C=C(CO)[C@@H](O)[C@H]2O)c2ncnc(C)c12	28	52.8
C#Cc1cn([C@@H]2C=C(CO)[C@@H](O)[C@H]2O)c2ncnc(C)c12	67.7	> 100
